“Also recorded” adds a separate entry of the source.
How the values were obtained:
Dnmt3b = Dnmt3b protein level in nuclear fractions of E11.5 AGM cells; assay type: cell-based, mouse
Method: (§1) RNA-sequencing analyses were performed to measure gene expression patterns in mouse AGM treated with cyclic strain or pharmacological modulators. Using computational algorithms, hierarchical clustering was performed of differentially expressed genes as well as measured their overrepresented biological processes and pathways. Gene expression clusters of differentially expressed genes were analyzed and their mean expression level across cell populations compared. Next, Venn comparison of up- and down-genes was constructed to analyze candidate(s) important for cyclic strain- or pharmacological modulator(s)-mediated the endothelial-to-HSC transition. Furthermore, Dnmt3b and Dnmt3a protein expressions were analyzed in nuclear fractions of mouse AGM cells using EqiQuick assay kits. Data are presented as mean±s.d. unless otherwise noted. Statistical analyses were performed by paired or un-paired Student's t-tests. Significance was set at P<0.05.
Nuclear extracts from AGM explants were harvested using an EpiQuik Nuclear Extraction Kit (Epigentek Group Inc.). Dnmt3b and Dnmt3a protein levels were analyzed using a colorimetric EpiQuik Assay Kit (Epigentek Group Inc.), according to the manufacturer's instructions. Concentration of Dnmt3b and Dnmt3a is relative to 1 μg of nuclear extract proteins.

[1] = tested on: human iPSC-derived MACS-sorted CD34+ cells; test: Hematopoietic CFU assays of human iPSC-derived MACS-sorted CD34+ cells; assay type: cell-based; conditions: 20,000 hCD34+ cells per sample
Method: Embryoid body and hemogenic endothelium differentiation was performed as described in (Sugimura et al. 2017; Ditadi et al. 2015). Briefly, hiPSC colonies were dissociated with 0.05% trypsin for 5 min at 37° C., washed with PBS+2% FBS, and resuspended in StemPro-34 (Invitrogen, 10639-011) supplemented with L-glutamine (2 mM), penicillin/streptomycin ([…]), ascorbic acid (1 mM), human holo-Transferrin ([…], Sigma T0665), monothioglycerol (MTG, 0.4 mM), BMP4 (10 ng/ml), and Y-27632 (10 μM). Five million cells were seeded into 10 cm dishes (Ezsphere, Asahi Glass) for the spheroid formation. On Day 1, bFGF (5 ng/ml) and BMP4 (10 ng/ml) was added to the medium. On Day 2, the media was changed with the StemPro-34 supplemented with SB431542 (6 μM), CHIR99021 (3 μM), bFGF (5 ng/ml), and BMP4 (10 ng/ml). On Day 3, the medium was replaced with StemPro-34 supplemented with VEGF (15 ng/ml) and bFGF (10 ng/ml). On day 6, the medium was changed to StemPro-34 supplemented with bFGF (5 ng/ml), VEGF (15 ng/ml), interleukin (IL)-6 (10 ng/ml), IGF-1 (25 ng/ml), IL-11 (5 ng/ml), SCF (50 ng/ml) and EPO (2IU). The cells were maintained in a 5% CO2, 5% O2 and 95% humidity incubator. All cytokines were purchased from Peprotech. […]

human PSCs = test: FACS analyses of hematopoietic differentiation of human PSCs (embryoid bodies); assay type: cell-based
Method: Embryoid body and hemogenic endothelium differentiation was performed as described in (Sugimura et al. 2017; Ditadi et al. 2015). Briefly, hiPSC colonies were dissociated with 0.05% trypsin for 5 min at 37° C., washed with PBS+2% FBS, and resuspended in StemPro-34 (Invitrogen, 10639-011) supplemented with L-glutamine (2 mM), penicillin/streptomycin ([…]), ascorbic acid (1 mM), human holo-Transferrin ([…], Sigma T0665), monothioglycerol (MTG, 0.4 mM), BMP4 (10 ng/ml), and Y-27632 (10 μM). Five million cells were seeded into 10 cm dishes (Ezsphere, Asahi Glass) for the spheroid formation. On Day 1, bFGF (5 ng/ml) and BMP4 (10 ng/ml) was added to the medium. On Day 2, the media was changed with the StemPro-34 supplemented with SB431542 (6 μM), CHIR99021 (3 μM), bFGF (5 ng/ml), and BMP4 (10 ng/ml). On Day 3, the medium was replaced with StemPro-34 supplemented with VEGF (15 ng/ml) and bFGF (10 ng/ml). On day 6, the medium was changed to StemPro-34 supplemented with bFGF (5 ng/ml), VEGF (15 ng/ml), interleukin (IL)-6 (10 ng/ml), IGF-1 (25 ng/ml), IL-11 (5 ng/ml), SCF (50 ng/ml) and EPO (2IU). The cells were maintained in a 5% CO2, 5% O2 and 95% humidity incubator. All cytokines were purchased from Peprotech.
To isolate the CD34^+ cells, the embryoid bodies (from day 8) were dissociated by 0.05% trypsin, filtered through a 70 μm strainer, CD34^+ cells were isolated by CD34 magnetic bead staining, and subsequently passaged through the LS columns (Miltenyi). A sample from every batch was tested by FACS to validate its purity with the panel. The following antibodies were employed: CD34-PEcy7 (Clone 581; Biolegend), FLK1-PE (CLONE #89106; BD), and 4′,6-diamidino-2-phenylindole (DAPI).
Isolated CD34^+ cells were resuspended in StemPro-34 medium containing Y-27632 (10 μM), TPO (30 ng/ml), IL-3 (10 ng/ml), SCF (50 ng/ml), IL-6 (10 ng/ml), IL-11 (5 ng/ml), IGF-1 (25 ng/ml), VEGF (5 ng/ml), bFGF (5 ng/ml), BMP4 (10 ng/ml), and FLT3 (10 ng/ml) (Ferrel et al 2015). Cells were seeded at a density of 50,000 cells per well onto thin-layer Matrigel-coated 24-well plates. […]

E11.5 AGM cells = test: Whole transcriptome (RNA-seq) analyses of treated E11.5 AGM cells; assay type: cell-based, mouse
Method: as §1
Total RNA from E11.5 mouse AGM explant cultures was isolated (control, stretch, Yoda1 and 4αPDD conditions) with the RNAeasy MiniKit (QIAGEN). Our cDNA libraries were generated by BGI Americas Corporation and sequenced with a HiSeq4000 device (Illumina) at eight samples per lane. We mapped our sequenced read fragments to the mouse reference genome GRCm38 (ENSEMBL release 69) using the Genomic Short-Read Nucleotide Alignment program (version 2012-07-20). DESeq2 and DEXSeq were used to test for differential expression (FDR=0.1) and differential exon use, respectively. Gene expression clusters of differentially expressed genes were analyzed and their mean expression level across cell populations compared. Next, Venn comparison was performed of up- and down-genes to analyze candidate(s) important for cyclic strain- or pharmacological modulator(s)-mediating the endothelial-to-HSC transition. Specifically, we performed hierarchical clustering with bootstrap analyses using the gplots package (Warners et al., 2017) in R (R Development Core Team, 2012). […]

Compound: Clc1cccc(Cl)c1CSc1nnc(-c2cnccn2)s1 [Yoda1, 2-[5-[[(2,6-Dichlorophenyl)methyl]thio]-1,3,4-thiadiazol-2-yl]-pyrazine]
- Dnmt3b protein expression (Dnmt3b): specifically stimulates Dnmt3b protein expression levels
- multipotent GEMM progenitor formation [1]: elevated multipotent hematopoietic progenitor formation and human hematopoiesis; also recorded: stimulates multipotent GEMM progenitor formation and human hematopoiesis
- improvement in the number of HSCs produced from hPSCs (human PSCs; FIG. 7C): 2 Fold
- formation of CD34+CD90+ HSCs (human PSCs; day 8+7 of hematopoietic differentiation): enhances the formation of HSCs from hPSC
- formation of hCD43negCD235negCD144+CD34+ HECs (human PSCs; embryoid bodies, day 8, control and PIEZO1-/- PSCs): enhances the formation of hCD43^negCD235^negCD144^+CD34^+ HE cells in control but not in PIEZO1^−/− PSCs; also recorded: enhances the formation of hCD43^negCD235^negCD144^+CD34^+ HECs in control but not in PIEZO1^−/− PSCs
- Dnmt3b and Gimap6 transcript expression (Venn comparison of up-regulated genes) (E11.5 AGM cells): specifically stimulate Dnmt3b transcript expression and Gimap6 transcript expression
- expression of endothelial genes (E11.5 AGM cells): diminished expression of endothelial genes; also recorded: repress the expression of endothelial genes
- expression of hematopoietic genes (E11.5 AGM cells): elevated expression of hematopoietic genes; also recorded: stimulating the expression of hematopoietic genes

Reference: patent US20230041065A1, “METHODS FOR GENERATING HEMATOPOIETIC STEM CELLS” (The Brigham and Women`s Hospital, Inc., priority 2019, published 2023)
